This is an account of results in patent US11420969B2 (Exonate Limited, priority 2017, dated 2022).

Some results are limits rather than exact numbers.

Assay [1] has as its target SRPK1 (Homo sapiens, UniProt Q96SB4). Description: In vitro SRPK1 assay (Kinase-Glo). The class given is biochemical.
The target of assay [2] is T1, CYP1A2 (Homo sapiens, UniProt P05177).
T1 construct: from tissue; host or cells: human liver microsomes
T1 sequence (P05177 1-516): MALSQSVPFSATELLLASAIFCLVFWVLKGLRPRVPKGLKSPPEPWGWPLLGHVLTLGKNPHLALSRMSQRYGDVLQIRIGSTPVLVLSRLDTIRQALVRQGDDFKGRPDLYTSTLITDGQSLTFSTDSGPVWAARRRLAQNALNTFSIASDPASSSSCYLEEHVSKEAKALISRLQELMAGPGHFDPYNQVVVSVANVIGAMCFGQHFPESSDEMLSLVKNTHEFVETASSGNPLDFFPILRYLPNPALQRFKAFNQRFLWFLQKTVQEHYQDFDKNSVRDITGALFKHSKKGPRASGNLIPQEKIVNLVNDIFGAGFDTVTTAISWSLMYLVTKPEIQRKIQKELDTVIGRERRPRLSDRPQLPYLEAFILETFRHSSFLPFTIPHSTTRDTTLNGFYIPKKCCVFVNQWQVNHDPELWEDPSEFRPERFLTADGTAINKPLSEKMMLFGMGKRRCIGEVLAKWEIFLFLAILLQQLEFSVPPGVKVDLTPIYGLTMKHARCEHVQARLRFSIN
Description: CYP inhibition assay, human liver microsomes, substrate tacrine. Format: in vitro ADME. Particulars: human liver microsomes, 10 min incubation, LC-MS/MS; read-out: CYP Inhibition Activity (IC50/nM) CYP1A2. The gist of the method:
(§1)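 Inhibition was determined with all substrates combined as a cocktail, a 20 min compound pre-incubation and a 10 min NADPH reaction at 37 °C. IC50 was calculated from LC-MS/MS data.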
A general note: Liver microsomes are vesicles of endoplasmic reticulum, rich in cytochrome P450 enzymes.

Assay [3] concerns the target T2, CYP2C9 (Homo sapiens, UniProt P11712).
T2 construct: from tissue; host or cells: human liver microsomes
The experiment in a line: CYP inhibition assay, human liver microsomes, substrate diclofenac. Format: in vitro ADME. The settings on record: human liver microsomes, 10 min incubation, LC-MS/MS; read-out: CYP Inhibition Activity (IC50/nM) CYP2C9. In a few lines: as §1

Assay [4] concerns the target T3, CYP2C19 (Homo sapiens, UniProt P33261).
T3 construct: from tissue; host or cells: human liver microsomes
Description: CYP inhibition assay, human liver microsomes, substrate S-mephenytoin. Format: in vitro ADME. Particulars: human liver microsomes, 10 min incubation, LC-MS/MS; read-out: CYP Inhibition Activity (IC50/nM) CYP2C19. In a few lines: as §1

The target of assay [5] is T4, CYP2D6 (Homo sapiens, UniProt P10635).
T4 construct: from tissue; host or cells: human liver microsomes
T4 sequence (P10635 whole entry): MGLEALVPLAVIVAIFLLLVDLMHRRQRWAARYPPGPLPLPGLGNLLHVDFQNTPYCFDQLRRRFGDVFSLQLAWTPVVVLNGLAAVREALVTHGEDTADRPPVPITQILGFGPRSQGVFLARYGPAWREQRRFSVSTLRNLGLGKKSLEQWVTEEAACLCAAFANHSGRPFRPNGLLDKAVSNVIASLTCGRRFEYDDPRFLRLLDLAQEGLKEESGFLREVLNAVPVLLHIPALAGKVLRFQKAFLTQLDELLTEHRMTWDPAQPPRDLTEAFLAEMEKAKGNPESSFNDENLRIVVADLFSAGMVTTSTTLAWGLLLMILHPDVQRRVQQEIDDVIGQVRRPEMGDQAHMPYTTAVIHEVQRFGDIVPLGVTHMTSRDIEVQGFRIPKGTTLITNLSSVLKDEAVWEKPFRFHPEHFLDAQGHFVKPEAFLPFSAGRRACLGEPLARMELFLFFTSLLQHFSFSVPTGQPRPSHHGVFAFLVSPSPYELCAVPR
Description: biochemical. Format: in vitro ADME. In a few lines: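 Human liver microsomes (0.253 mg/mL working stock) pre-incubated with compound and substrate pool at 37° C for 20 min. Reaction started with NADPH and run 10 min at 37° C, stopped with cold ACN. Metabolite analysed by LC-MS/MS; % inhibition and IC50 calculated versus inhibitor-free control.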

Assay [6] deals with T5, CYP3A4 (Homo sapiens, UniProt P08684).
T5 construct: from tissue; host or cells: human liver microsomes
T5 sequence (P08684 whole entry): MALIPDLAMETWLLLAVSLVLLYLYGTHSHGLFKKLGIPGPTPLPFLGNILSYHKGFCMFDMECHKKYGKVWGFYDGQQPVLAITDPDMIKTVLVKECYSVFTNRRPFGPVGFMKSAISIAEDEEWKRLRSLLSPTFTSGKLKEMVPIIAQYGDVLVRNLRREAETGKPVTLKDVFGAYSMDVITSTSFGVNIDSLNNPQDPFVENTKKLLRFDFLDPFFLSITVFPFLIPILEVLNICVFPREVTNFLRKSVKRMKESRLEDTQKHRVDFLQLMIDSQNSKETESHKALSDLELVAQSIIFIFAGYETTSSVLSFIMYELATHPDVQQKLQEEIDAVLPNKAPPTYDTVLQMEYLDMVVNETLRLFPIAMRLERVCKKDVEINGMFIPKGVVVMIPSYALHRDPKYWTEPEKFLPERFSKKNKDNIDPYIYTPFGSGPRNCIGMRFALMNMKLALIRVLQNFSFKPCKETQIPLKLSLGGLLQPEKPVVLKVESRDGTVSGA
The experiment in a line: CYP inhibition assay, human liver microsomes, substrate midazolam. Format: in vitro ADME. Particulars: human liver microsomes, 10 min incubation, LC-MS/MS; read-out: CYP Inhibition Activity (IC50/nM) CYP3A4. The gist of the method: as §1

SRPK1, sequence (Q96SB4 whole entry, species assumed): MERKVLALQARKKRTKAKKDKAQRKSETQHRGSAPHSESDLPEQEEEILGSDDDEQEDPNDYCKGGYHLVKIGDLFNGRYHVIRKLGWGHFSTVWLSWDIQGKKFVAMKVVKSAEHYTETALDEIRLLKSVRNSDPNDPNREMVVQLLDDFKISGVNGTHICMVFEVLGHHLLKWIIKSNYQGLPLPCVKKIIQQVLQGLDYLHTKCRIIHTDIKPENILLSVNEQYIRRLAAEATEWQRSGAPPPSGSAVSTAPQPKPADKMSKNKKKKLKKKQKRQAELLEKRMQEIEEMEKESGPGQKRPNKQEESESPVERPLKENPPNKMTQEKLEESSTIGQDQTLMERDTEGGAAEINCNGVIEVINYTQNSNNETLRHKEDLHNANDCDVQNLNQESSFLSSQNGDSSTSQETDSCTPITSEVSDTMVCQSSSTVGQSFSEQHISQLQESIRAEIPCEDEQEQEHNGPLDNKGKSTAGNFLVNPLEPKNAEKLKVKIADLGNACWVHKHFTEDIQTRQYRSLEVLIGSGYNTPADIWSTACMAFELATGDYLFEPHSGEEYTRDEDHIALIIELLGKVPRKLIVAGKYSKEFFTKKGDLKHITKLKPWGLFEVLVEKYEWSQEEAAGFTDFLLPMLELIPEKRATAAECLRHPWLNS
T3 sequence (P33261 whole entry): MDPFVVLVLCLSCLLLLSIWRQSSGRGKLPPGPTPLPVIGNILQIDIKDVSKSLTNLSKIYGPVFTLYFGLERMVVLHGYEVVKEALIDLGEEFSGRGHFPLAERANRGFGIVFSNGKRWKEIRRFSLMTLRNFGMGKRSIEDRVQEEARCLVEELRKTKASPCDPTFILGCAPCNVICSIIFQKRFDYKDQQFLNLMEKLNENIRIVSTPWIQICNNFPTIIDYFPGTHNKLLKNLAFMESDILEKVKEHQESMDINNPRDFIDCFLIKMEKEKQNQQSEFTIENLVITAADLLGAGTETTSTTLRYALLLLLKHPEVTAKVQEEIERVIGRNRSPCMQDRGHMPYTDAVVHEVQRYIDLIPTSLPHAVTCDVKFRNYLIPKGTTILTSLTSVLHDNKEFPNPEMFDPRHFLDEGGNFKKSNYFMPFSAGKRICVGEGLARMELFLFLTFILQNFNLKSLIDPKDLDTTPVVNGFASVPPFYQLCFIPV
T2 sequence (P11712 whole entry): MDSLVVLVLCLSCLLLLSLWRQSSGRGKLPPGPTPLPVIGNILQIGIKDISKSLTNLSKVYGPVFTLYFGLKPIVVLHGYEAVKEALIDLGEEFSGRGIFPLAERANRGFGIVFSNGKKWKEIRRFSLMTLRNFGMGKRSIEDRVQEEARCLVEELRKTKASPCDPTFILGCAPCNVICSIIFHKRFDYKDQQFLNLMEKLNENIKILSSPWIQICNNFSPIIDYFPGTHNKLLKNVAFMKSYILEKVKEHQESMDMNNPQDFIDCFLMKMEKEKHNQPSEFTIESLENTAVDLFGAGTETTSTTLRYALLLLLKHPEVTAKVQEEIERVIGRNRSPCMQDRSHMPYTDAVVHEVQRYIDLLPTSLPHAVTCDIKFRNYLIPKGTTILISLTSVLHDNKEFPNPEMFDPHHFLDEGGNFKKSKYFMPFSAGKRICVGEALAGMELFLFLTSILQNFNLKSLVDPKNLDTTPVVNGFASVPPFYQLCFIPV

Turning to `O=C(Nc1cc(C(F)(F)F)ccc1N1CCC(O)C1)c1ccc(-c2ccncc2)o1` (racemic) [Example 56, N-(2-(3-hydroxypyrrolidin-1-yl)-5-(trifluoromethyl)-phenyl)-5-(pyridin-4-yl)furan-2-carboxamide], the IC50 in assay [1] turned out to be 101 nM; in assay [2], 960 nM; in assay [3], 140 nM; in assay [4], 130 nM; in assay [5], 0.04 µM; in assay [6], 2420 nM.

For `CC1(O)CCCN(c2ccc(C3CC3)cc2NC(=O)c2ccc(C3CCOCC3)o2)CC1` (racemic) [Example 42, N-(5-cyclopropyl-2-(4-hydroxy-4-methylazepan-1-yl)phenyl)-5-(tetrahydro-2H-pyran-4-yl)furan-2-carboxamide], the IC50 in assay [1] is 13 nM; in assay [2], above 30000 nM; in assay [3], 610 nM; in assay [4], 530 nM; in assay [5], 16.6 µM; in assay [6] it was 10300 nM.

For `Cc1ccc(N2CCC(C)(CO)CC2)c(NC(=O)c2ccc(C3CCOCC3)o2)c1` [Example 66, N-(2-(4-(hydroxymethyl)-4-methylpiperidin-1-yl)-5-methylphenyl)-5-(tetrahydro-2H-pyran-4-yl)furan-2-carboxamide], the IC50 in assay [1] is 10 nM; in assay [2] it was above 30000 nM; in assay [3], 2000 nM; in assay [4] it was 11400 nM; in assay [5], above 30 µM; in assay [6], above 30000 nM.

Consider `CC1(C(N)=O)CCN(c2ccc(C(F)(F)F)cc2NC(=O)c2ccc(C3CCOCC3)o2)CC1` [Example 75, 4-methyl-1-(2-(5-(tetrahydro-2H-pyran-4-yl)furan-2-carboxamido)-4-(trifluoromethyl)-phenyl)piperidine-4-carboxamide], for which the IC50 was 2.8 nM in assay [1]; above 30000 nM in assay [2]; 4400 nM in assay [3]; 10800 nM in assay [4]; 11.8 µM in assay [5]; 10300 nM in assay [6].

Take `CCC1(O)CCN(c2ccc(C(F)(F)F)cc2NC(=O)c2ccc(C3CCOCC3)o2)CC1` [Example 20, N-(2-(4-ethyl-4-hydroxypiperidin-1-yl)-5-(trifluoromethyl)phenyl)-5-(tetrahydro-2H-pyran-4-yl)furan-2-carboxamide]: the IC50 in assay [1] was 6 nM; in assay [2] it was above 30000 nM; in assay [3], above 30000 nM; in assay [4], above 30000 nM; in assay [5], above 30 µM; in assay [6], above 30000 nM.

On to `CC1(CO)CCN(c2ccc(C3CC3)cc2NC(=O)c2ccc(C3CCOCC3)o2)CC1` [Example 67, N-(5-cyclopropyl-2-(4-(hydroxymethyl)-4-methylpiperidin-1-yl)phenyl)-5-(tetrahydro-2H-pyran-4-yl)furan-2-carboxamide], for which the IC50 in assay [1] was 4.1 nM; in assay [2], above 30000 nM; in assay [3] it was 3300 nM; in assay [4], 7900 nM; in assay [5], above 30 µM; in assay [6] it was above 30000 nM.

Regarding `Cc1ccc(N2CCC(O)CC2)c(NC(=O)c2ccc(C3CCOCC3)o2)c1` [Example 36, N-(2-(4-hydroxypiperidin-1-yl)-5-methylphenyl)-5-(tetrahydro-2H-pyran-4-yl)furan-2-carboxamide], the IC50 in assay [1] was 3.7 nM; in assay [2], 6590 nM; in assay [3], 4940 nM; in assay [4], 7500 nM; in assay [5] it was 21.5 µM; in assay [6], above 30000 nM.

In the case of `CC1(C(=O)N2CCCCC2)CCN(c2ccc(C(F)(F)F)cc2NC(=O)c2ccc(C3CCOCC3)o2)CC1` [Example 89, N-(2-(4-methyl-4-(piperidine-1-carbonyl)-piperidin-1-yl)-5-(trifluoromethyl)phenyl)-5-(tetrahydro-2H-pyran-4-yl)furan-2-carboxamide], the IC50 was 14 nM in assay [1]; above 30000 nM in assay [2]; 2500 nM in assay [3]; 14100 nM in assay [4]; 18.9 µM in assay [5]; 2800 nM in assay [6].

As for `Cc1ccc(N2CCC(C)(C)CC2)c(NC(=O)c2ccc(C3CCOCC3)o2)c1` [Example 63, N-(2-(4,4-dimethylpiperidin-1-yl)-5-methylphenyl)-5-(tetrahydro-2H-pyran-4-yl)furan-2-carboxamide], the IC50 is 25 nM in assay [1]; above 30000 nM in assay [2]; 14200 nM in assay [3]; above 30000 nM in assay [4]; above 30 µM in assay [5]; above 30000 nM in assay [6].

Take `O=C(Nc1cc(C(F)(F)F)ccc1N1CCC(O)C1)c1ccc(C2CCOCC2)o1` (racemic) [Example 57, N-(2-(3-hydroxypyrrolidin-1-yl)-5-(trifluoromethyl)-phenyl)-5-(tetrahydro-2H-pyran-4-yl)furan-2-carboxamide]: the IC50 was 75 nM in assay [1]; 9160 nM in assay [2]; 5550 nM in assay [3]; 14500 nM in assay [4]; 11.5 µM in assay [5]; above 30000 nM in assay [6].

For `O=C(Nc1cc(C(F)(F)F)ccc1N1CCCC(O)CC1)c1ccc(-c2ccncc2)o1` (racemic) [Example 44, N-(2-(4-hydroxyazepan-1-yl)-5-(trifluoromethyl)-phenyl)-5-(pyridin-4-yl)furan-2-carboxamide], the IC50 is 1.5 nM in assay [1]; 24300 nM in assay [2]; 11200 nM in assay [3]; 8570 nM in assay [4]; 25.3 µM in assay [5]; 26300 nM in assay [6].

`CC1(C)CCN(c2ccc(Cl)cc2NC(=O)c2ccc(C3CCOCC3)o2)CC1` [Example 65, N-(5-chloro-2-(4,4-dimethylpiperidin-1-yl)phenyl)-5-(tetrahydro-2H-pyran-4-yl)furan-2-carboxamide]: the IC50 in assay [1] was 9.8 nM; in assay [2], above 30000 nM; in assay [3], 14000 nM; in assay [4], above 30000 nM; in assay [5] it was above 30 µM; in assay [6], above 30000 nM.

As to `CC1(O)CCN(c2ccc(C3CC3)cc2NC(=O)c2ccc(-c3ccncc3)o2)CC1` [Example 6, N-(5-cyclopropyl-2-(4-hydroxy-4-methylpiperidin-1-yl)phenyl)-5-(pyridin-4-yl)furan-2-carboxamide], the IC50 in assay [1] was determined as 1.7 nM; in assay [2], 11700 nM; in assay [3], 790 nM; in assay [4], 1010 nM; in assay [5] it was 4.83 µM; in assay [6], 1050 nM.

Regarding `CC1(CO)CCN(c2ccc(C(F)(F)F)cc2NC(=O)c2ccc(-c3ccncc3)o2)CC1` [Example 24, N-(2-(4-(hydroxymethyl)-4-methylpiperidin-1-yl)-5-(trifluoromethyl)phenyl)-5-(pyridin-4-yl)furan-2-carboxamide], the IC50 in assay [1] was 2 nM; in assay [2], above 30000 nM; in assay [3] it was above 30000 nM; in assay [4], above 30000 nM; in assay [5], above 30 µM; in assay [6], above 30000 nM.
